In patent US11505558B1, “Antiviral heterocyclic compounds” (Enanta Pharmaceuticals, Inc., priority 2019, dated 2022):

Experiments:
HRSV = conditions: prophylactic use, high risk infants; cited from earlier work
[1] = test system: genotype A, "Long" strain RSV; assay: RSV-A assay (CPE, ATPlite readout in Hep-2 cells); format: cell-based; conditions: human respiratory syncytial virus, HEp-2, Hep-2 cells, genotype A "Long" strain RSV, MOI 0.1; read-out: Human RSV-A (“Long” strain) EC50
Outline: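 Protection from RSV-induced cytopathic effect, measured as ATPlite luminescence after 5 days, gave EC50 values. Assay used genotype A Long strain at MOI 0.1 on Hep-2 cells seeded at 8,000/well in DMEM growth media with 10% FBS; compounds tested as 2-fold dilutions in duplicate.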

[2] = test system: recombinant HMPV CAN97-83 (MPV-GFP1); assay: HMPV antiviral assay (MPV-GFP1 eGFP fluorescence in Vero E6 cells); format: cell-based; conditions: human metapneumovirus, Vero C1008, 120 h, read-out: HMPV EC50
Outline: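 Vero E6 cells in serum-free OptiMEM with 0.5 μg/mL TPCK-trypsin infected with eGFP-expressing HMPV CAN97-83 (MPV-GFP1) at MOI 0.05. 8-point […] ½-step dilutions from 8 or 2 μM, 0.5% DMSO, 5 days at 32 °C. eGFP fluorescence normalized to infected untreated wells; EC50 from four-parameter logistic fit.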

Molecule	effective in reducing hospitalizations (HRSV)	EC50 [1]	EC50 [2]
Palivizumab	60%		
C[C@]1(C(N)=O)COc2c1cc([C@@](O)(CNC(=O)c1ccc(OC3CC3)c(OC3CC3)c1)C(F)(F)F)nc2-c1ccc(C#N)cc1 [Example 94]		< 200 nM	< 500 nM
C[C@]1(C(=O)NCCOC(N)=O)COc2c1cc([C@@](O)(CNC(=O)c1cc(OC3CC3)c3ncccc3c1)C(F)(F)F)nc2-c1ccc(F)cc1 [Example 460]		< 200 nM	> 500 nM
Cc1cc2cc(C(=O)NC[C@](O)(c3cc4c(c(-c5ccc(F)c(Cl)c5)n3)OC[C@]4(C)C(N)=O)C(F)(F)F)ccc2nn1 [Example 617]		< 200 nM	< 500 nM
CN(C)C(=O)COc1cc(C(=O)NC[C@](O)(c2cc3c(c(-c4ccc(F)cc4)n2)OC[C@]3(C)C(N)=O)C(F)(F)F)cc2cccnc12 [Example 373]		< 200 nM	> 500 nM
Cn1cc2cc(C(=O)NC[C@](O)(c3cc4c(c(-c5ccc(F)cc5)n3)OC[C@]4(C)C(=O)NCC(C)(C)O)C3CC3)ccc2n1 [Example 642]		< 200 nM	> 500 nM
C[C@]1(C(N)=O)COc2c1cc([C@](O)(CNC(=O)c1cc(OC3CC3)c3ncccc3c1)C(F)(F)F)nc2-c1ccc(F)c(F)c1 [Example 80]		< 200 nM	< 500 nM
C[C@]1(C(N)=O)COc2c1cc([C@@](O)(CNC(=O)c1cc(OC3CC3)c3ncccc3c1)C(F)(F)F)nc2-c1ccc(F)cc1 [Example 61]		< 200 nM	< 500 nM
Cc1cnc2c(OCC(N)=O)cc(C(=O)NC[C@](O)(c3cc4c(c(-c5ccc(F)cc5)n3)OC[C@]4(C)C(N)=O)C(F)(F)F)cc2c1 [Example 366]		< 200 nM	> 500 nM
COc1cc(C(=O)NC[C@](O)(c2cc3c(c(-c4ccc(F)c(Cl)c4)n2)OC[C@]3(C)C(N)=O)C(F)(F)F)cc2sc(N)nc12 [Example 433]		< 200 nM	< 500 nM
C[C@]1(C(=O)NCCCN)COc2c1cc([C@@](O)(CNC(=O)c1cc(OC3CC3)c3ncccc3c1)C(F)(F)F)nc2-c1ccc(F)cc1 [Example 464]		< 200 nM	> 500 nM
COc1cc(C(=O)NC[C@](O)(c2cc3c(c(-c4ccc(F)cc4)n2)OC[C@]3(C)C(=O)NC2(C#N)CC2)C(F)(F)F)cc2cccnc12 [Example 451]		< 200 nM	< 500 nM
C[C@]1(C(N)=O)COc2c1cc([C@@](O)(CNC(=O)c1cc(OC3CC3)c3ncccc3c1)C(F)(F)F)nc2-c1ccccc1 [Example 228]		< 200 nM	> 500 nM
C[C@]1(C(N)=O)COc2c1cc([C@@](O)(CNC(=O)c1cc(OC3CC3)c3ncc(Cl)cc3c1)C(F)(F)F)nc2-c1ccc(F)cc1 [Example 521]		< 200 nM	< 500 nM
C[C@]1(C(N)=O)COc2c1cc([C@@](O)(CNC(=O)c1ccc3nc(N)sc3c1)C(F)(F)F)nc2-c1ccc(F)cc1 [Example 429]		< 200 nM	> 500 nM
C[C@]1(C(N)=O)COc2c1cc([C@@](O)(CNC(=O)c1ccc3ncccc3c1)C(F)(F)F)nc2-c1ccc(F)cc1 [Example 269]		< 200 nM	< 500 nM
COc1cc(C(=O)NC[C@](O)(c2cc3c(c(-c4ccc(F)cc4)n2)OC[C@]3(C)CNCC2CC2)C(F)(F)F)ccn1 [Example 37]		> 200 nM	> 500 nM
COc1cc(C(=O)NC[C@](O)(c2cc3c(c(-c4ccc(F)cc4)n2)OC[C@]3(C)C(N)=O)C(F)(F)F)cc2sc(C)nc12 [Example 562]		< 200 nM	< 500 nM
COc1cc(C(=O)NC[C@](O)(c2cc3c(c(-c4ccc(F)c(F)c4)n2)OC[C@]3(C)C(N)=O)C(F)(F)F)ccc1OC1CC1 [Example 89]		< 200 nM	< 500 nM
C[C@@H](O)COc1cc(C(=O)NC[C@](O)(c2cc3c(c(-c4ccc(F)cc4)n2)OC[C@]3(C)C(N)=O)C(F)(F)F)cc2cccnc12 [Example 287]		> 200 nM	> 500 nM
C[C@]1(C(N)=O)COc2c1cc([C@@](O)(CNC(=O)c1ccc(OC3CC3)c(N3CCC3)c1)C(F)(F)F)nc2-c1ccc(F)cc1 [Example 136]		< 200 nM	> 500 nM
CCNC(=O)[C@@]1(C)COc2c1cc([C@@](O)(CNC(=O)c1cc(OC)c3ncccc3c1)C(F)(F)F)nc2-c1ccc(F)cc1 [Example 56]		< 200 nM	< 500 nM
COc1cc(C(=O)NC[C@](O)(c2cc3c(c(-c4ccc(F)cc4)n2)OC[C@]3(C)C(N)=O)C2CC2)cc2cc(Cl)cnc12 [Example 528]		< 200 nM	< 500 nM
C[C@]1(C(N)=O)COc2c1cc([C@@](O)(CNC(=O)c1cc(OC3CC3)c3ncccc3c1)C1CC1)nc2-c1ccc(F)cc1 [Example 280]		< 200 nM	< 500 nM

Molecule	effective in reducing hospitalizations (HRSV)	EC50 [1]	EC50 [2]
Cc1ncoc1-c1ccc(C(=O)NC[C@](O)(c2cc3c(c(-c4ccc(F)cc4)n2)OC[C@]3(C)C(N)=O)C(F)(F)F)cc1OC1CC1 [Example 180]		< 200 nM	> 500 nM
C[C@]1(C(N)=O)COc2c1cc([C@](O)(CNC(=O)c1cc(OC3CC3)c3ncccc3c1)C(F)(F)F)nc2-c1ccc(C(F)(F)F)cc1 [Example 82]		< 200 nM	> 500 nM
COc1cc(C(=O)NC[C@](O)(c2cc3c(c(-c4ccc(F)cc4)n2)OC[C@]3(C)CC(N)=O)C(F)(F)F)cc2cccnc12 [Example 75]		< 200 nM	> 500 nM
CC(C)(O)CNC(=O)[C@@]1(C)COc2c1cc([C@@](O)(CNC(=O)c1ccc3nc(N)sc3c1)C(F)(F)F)nc2-c1ccc(F)cc1 [Example 497]		< 200 nM	> 500 nM
CNC(=O)CNC(=O)[C@@]1(C)COc2c1cc([C@@](O)(CNC(=O)c1cc(OC3CC3)c3ncccc3c1)C(F)(F)F)nc2-c1ccc(F)cc1 [Example 473]		< 200 nM	> 500 nM
C[C@]1(C(=O)NCCC(N)=O)COc2c1cc([C@@](O)(CNC(=O)c1cc(OC3CC3)c3ncccc3c1)C(F)(F)F)nc2-c1ccc(F)cc1 [Example 477]		< 200 nM	> 500 nM
COc1cc(C(=O)NC[C@](O)(c2cc3c(c(-c4ccc(F)cc4)n2)OC[C@]3(C)C(N)=O)C(F)(F)F)cc2cc(C)c(C)nc12 [Example 533]		< 200 nM	< 500 nM
C[C@]1(C(=O)NC2CC(O)C2)COc2c1cc([C@@](O)(CNC(=O)c1cc(OC3CC3)c3ncccc3c1)C(F)(F)F)nc2-c1ccc(F)cc1 (stereo partly drawn) [Example 467]		< 200 nM	< 500 nM
COc1cc(C(=O)NC[C@](O)(c2cc3c(c(-c4ccc(F)cc4)n2)OC[C@]3(C)C(N)=O)C(F)(F)F)cc2sc(N)nc12 [Example 431]		< 200 nM	< 500 nM
Cc1cnc2c(Nc3cccnn3)cc(C(=O)NC[C@](O)(c3cc4c(c(-c5ccc(F)cc5)n3)OC[C@]4(C)C(N)=O)C(F)(F)F)cc2c1 [Example 560]		< 200 nM	< 500 nM
Cc1cnc2c(Nc3ncncn3)cc(C(=O)NC[C@](O)(c3cc4c(c(-c5ccc(F)cc5)n3)OC[C@]4(C)C(N)=O)C(F)(F)F)cc2c1 [Example 611]		< 200 nM	> 500 nM
C[C@]1(C(N)=O)COc2c1cc([C@@](O)(CNC(=O)c1ccc(OC3CC3)c(-c3cccc(C(F)(F)F)n3)c1)C(F)(F)F)nc2-c1ccc(F)cc1 [Example 110]		< 200 nM	> 500 nM
C[C@]1(C(N)=O)COc2c1cc([C@@](O)(CNC(=O)c1cc(OC3CC3)c3ncc(Cl)cc3c1)C1CC1)nc2-c1ccc(F)c(Cl)c1 [Example 531]		< 200 nM	< 500 nM
COc1cc(C(=O)NC[C@](O)(c2cc3c(c(-c4ccc(F)cc4)n2)OC[C@]3(C)CC#N)C(F)(F)F)cc2cccnc12 [Example 74]		< 200 nM	< 500 nM
Cn1cc2cc(C(=O)NC[C@](O)(c3cc4c(c(-c5ccc(F)cc5)n3)OC[C@]4(C)C(=O)NCC(C)(C)O)C(F)(F)F)ccc2n1 [Example 640]		< 200 nM	> 500 nM
C[C@]1(C(N)=O)COc2c1cc([C@@](O)(CNC(=O)c1ccc(OC3CC3)c(-c3cncc(C(F)(F)F)c3)c1)C(F)(F)F)nc2-c1ccc(F)cc1 [Example 104]		> 200 nM	> 500 nM
Cc1cnc2c(NC(=O)c3nc(C)co3)cc(C(=O)NC[C@](O)(c3cc4c(c(-c5ccc(F)cc5)n3)OC[C@]4(C)C(N)=O)C(F)(F)F)cc2c1 [Example 623]		< 200 nM	> 500 nM
COc1cc(C(=O)NC[C@](O)(c2cc3c(c(-c4ccc(F)c(Cl)c4)n2)OC[C@]3(C)C(N)=O)C(F)(F)F)cc2cc(C3CC3)cnc12 [Example 532]		< 200 nM	< 500 nM
COc1cc(C(=O)NC[C@](O)(c2cc3c(c(-c4ccc(F)cc4)n2)OC[C@]3(C)C(=O)NC2COC2)C(F)(F)F)cc2cccnc12 [Example 52]		< 200 nM	< 500 nM
COc1cc(C(=O)NC[C@](O)(c2cc3c(c(-c4ccc(F)cc4)n2)OC[C@]3(C)C(N)=O)C(F)(F)F)cc2ccccc12 [Example 69]		> 200 nM	> 500 nM
COc1cc(C(=O)NC[C@](O)(c2cc3c(c(-c4ccc(F)c(Cl)c4)n2)OC[C@]3(C)C(N)=O)C2CC2)cc2cc(C3CC3)cnc12 [Example 523]		< 200 nM	< 500 nM
Cc1cnc2c(NC(=O)C3(C)CC3)cc(C(=O)NC[C@](O)(c3cc4c(c(-c5ccc(F)cc5)n3)OC[C@]4(C)C(N)=O)C(F)(F)F)cc2c1 [Example 552]		< 200 nM	< 500 nM
Cc1ccc2cc(C(=O)NC[C@](O)(c3cc4c(c(-c5ccc(F)cc5)n3)OC[C@]4(C)C(N)=O)C(F)(F)F)cc(NC(=O)C3(F)CC3)c2n1 [Example 627]		< 200 nM	> 500 nM
